Experimental data as given in US20220144847A1, “HETEROCYCLIC COMPOUND, PHARMACEUTICAL COMPOSITION COMPRISING SAME, PREPARATION METHOD THEREFOR, AND USE THEREOF” (Sichuan Kelun-Biotech Biopharmaceutical Co., Ltd., priority 2019, published 2022).
Where two headings read alike, the source gives them in different places.

Legend:
RET-V804M = RET-V804M (Homo sapiens, UniProt P07949, V804M); assay: RET inhibition experiment (HTRF KinEASE-TK kit), mutant RET-V804M; assay type: biochemical; details: for IC50: read-out: The IC50 (nM) for inhibiting V804M
Sequence of RET-V804M (P07949 29-1114 V804M): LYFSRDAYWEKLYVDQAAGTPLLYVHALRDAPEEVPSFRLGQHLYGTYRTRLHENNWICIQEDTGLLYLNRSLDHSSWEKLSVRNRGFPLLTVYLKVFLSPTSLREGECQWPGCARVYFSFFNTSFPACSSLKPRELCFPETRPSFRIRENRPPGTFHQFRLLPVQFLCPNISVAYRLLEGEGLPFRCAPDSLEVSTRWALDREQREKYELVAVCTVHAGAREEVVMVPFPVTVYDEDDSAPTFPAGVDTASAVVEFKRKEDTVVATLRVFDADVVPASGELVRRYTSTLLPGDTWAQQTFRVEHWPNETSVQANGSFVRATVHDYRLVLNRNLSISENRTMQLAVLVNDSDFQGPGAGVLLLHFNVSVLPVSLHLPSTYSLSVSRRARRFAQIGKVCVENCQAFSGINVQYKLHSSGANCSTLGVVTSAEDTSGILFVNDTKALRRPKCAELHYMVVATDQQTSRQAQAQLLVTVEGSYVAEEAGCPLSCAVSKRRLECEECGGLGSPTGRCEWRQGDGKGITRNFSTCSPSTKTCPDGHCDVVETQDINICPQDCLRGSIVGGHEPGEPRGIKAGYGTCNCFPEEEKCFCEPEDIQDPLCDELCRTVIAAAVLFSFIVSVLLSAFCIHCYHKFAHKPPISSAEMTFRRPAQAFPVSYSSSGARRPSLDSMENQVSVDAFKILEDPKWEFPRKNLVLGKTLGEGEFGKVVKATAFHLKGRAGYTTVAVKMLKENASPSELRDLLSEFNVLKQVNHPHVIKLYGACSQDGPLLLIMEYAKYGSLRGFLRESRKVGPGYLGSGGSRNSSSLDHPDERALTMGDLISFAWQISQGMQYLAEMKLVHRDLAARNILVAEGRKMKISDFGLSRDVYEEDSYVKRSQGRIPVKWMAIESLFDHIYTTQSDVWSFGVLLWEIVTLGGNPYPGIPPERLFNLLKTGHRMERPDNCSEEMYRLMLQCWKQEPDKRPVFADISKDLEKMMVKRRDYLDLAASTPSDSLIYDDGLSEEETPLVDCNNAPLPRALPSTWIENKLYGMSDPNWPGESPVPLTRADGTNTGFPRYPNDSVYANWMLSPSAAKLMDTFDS
Method: Experimental method: According to the instructions of the HTRF KinEASE-TK kit (Cisbio), the compounds of the present disclosure were tested for their inhibitory effects on the activity of wild-type RET enzyme, mutant RET enzyme (RET-V804M, RET-V804L, and RET-M918T) and fusion-type RET enzyme (RET-CCDCl6). After pre-incubation of different RET enzymes and different concentrations of the test compounds at room temperature for 30 min, a substrate and adenosine triphosphate (ATP) were added to initiate the reaction. After incubation at room temperature for 40 min, TK antibody-cryptate and streptavidin-XL665 were added, and the test was performed after incubation at room temperature for 45 min. With the solvent group (DMSO) as the negative control and the buffer group (without RET enzyme) as the blank control, the relative inhibitory activity percentages (i.e., inhibition rates) of different concentrations of the compounds were computed as per the following formula:
(§1) Relative inhibitory activity percentage=1−(compound group of different concentrations−blank control)/(negative control−blank control)*100%
(§2) The relative inhibitory activity percentages of different concentrations of the compounds were plotted with respect to the compound concentrations, and the curve was fitted according to a four-parameter model to compute the IC50 value as per the following formula:
(§3) y=min+(max−min)/(1+(x/IC50)^(−Hillslope))
(§4) where y is the relative inhibitory activity percentage, max is the maximum value of the fitted curve, min is the minimum value of the fitted curve, x is the logarithmic concentration of the compound, and Hillslope is the slope of the curve.

VEGFR2 = VEGFR2 (Homo sapiens, UniProt P35968); assay: VEGFR2 inhibition experiment (HTRF KinEASE-TK kit); assay type: biochemical; details: for inhibition at 0.1 µM: 100 nM
Sequence of VEGFR2 (P35968 20-1356, species assumed): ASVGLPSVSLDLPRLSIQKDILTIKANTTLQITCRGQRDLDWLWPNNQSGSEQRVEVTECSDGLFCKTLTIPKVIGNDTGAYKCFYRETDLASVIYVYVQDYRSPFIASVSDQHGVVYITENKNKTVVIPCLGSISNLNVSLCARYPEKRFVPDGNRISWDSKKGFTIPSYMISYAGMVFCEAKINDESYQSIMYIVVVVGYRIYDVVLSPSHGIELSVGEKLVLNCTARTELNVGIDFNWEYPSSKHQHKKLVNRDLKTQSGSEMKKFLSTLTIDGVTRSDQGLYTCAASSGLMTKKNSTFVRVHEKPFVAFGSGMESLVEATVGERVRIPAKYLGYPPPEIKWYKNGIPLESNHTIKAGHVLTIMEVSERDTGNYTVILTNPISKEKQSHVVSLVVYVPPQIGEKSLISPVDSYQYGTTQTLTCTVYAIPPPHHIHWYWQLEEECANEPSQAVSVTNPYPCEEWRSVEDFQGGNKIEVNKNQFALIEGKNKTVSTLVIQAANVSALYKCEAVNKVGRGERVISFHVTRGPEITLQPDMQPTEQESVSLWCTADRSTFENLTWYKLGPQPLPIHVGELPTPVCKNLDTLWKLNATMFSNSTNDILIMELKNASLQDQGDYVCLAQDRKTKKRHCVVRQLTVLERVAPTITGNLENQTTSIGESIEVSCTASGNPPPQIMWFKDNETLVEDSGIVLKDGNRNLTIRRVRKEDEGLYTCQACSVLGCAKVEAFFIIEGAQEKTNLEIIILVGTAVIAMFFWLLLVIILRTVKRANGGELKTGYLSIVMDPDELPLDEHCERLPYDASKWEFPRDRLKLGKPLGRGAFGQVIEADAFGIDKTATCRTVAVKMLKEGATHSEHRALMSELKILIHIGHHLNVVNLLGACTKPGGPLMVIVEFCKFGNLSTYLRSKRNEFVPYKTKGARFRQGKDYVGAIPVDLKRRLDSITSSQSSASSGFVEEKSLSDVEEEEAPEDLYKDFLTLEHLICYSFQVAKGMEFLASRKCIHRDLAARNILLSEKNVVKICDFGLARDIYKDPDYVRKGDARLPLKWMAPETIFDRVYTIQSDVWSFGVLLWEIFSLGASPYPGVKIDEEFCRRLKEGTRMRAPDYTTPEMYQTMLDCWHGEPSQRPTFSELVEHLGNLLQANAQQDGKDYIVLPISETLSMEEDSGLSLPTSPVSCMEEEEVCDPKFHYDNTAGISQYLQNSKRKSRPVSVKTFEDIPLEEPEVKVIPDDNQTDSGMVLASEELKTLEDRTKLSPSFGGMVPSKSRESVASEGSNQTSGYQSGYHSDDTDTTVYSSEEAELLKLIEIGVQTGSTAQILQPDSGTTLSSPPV
Method: Experimental method: According to the instructions of the HTRF KinEASE-TK kit (Cisbio), the compounds of the present disclosure were tested for their inhibitory effects on the VEGFR2 enzyme activity. After pre-incubation of the VEGFR2 enzyme and different concentrations of test compounds at room temperature for 30 min, a substrate and adenosine triphosphate (ATP) were added to initiate the reaction. After incubation at room temperature for 40 min, TK antibody-cryptate and streptavidin-XL665 were added, and the test was performed after incubation at room temperature for 45 min. With the solvent group (DMSO) as the negative control and the buffer group (without VEGFR2 enzyme) as the blank control, the relative inhibitory activity percentages (i.e., inhibition rates) of different concentrations of the compounds were computed as per the following formula:
as §1, §2, §3, §4

[1] = 100 nM (Table 2), read-out: Inhibition rate on RET-V804M
[2] = read-out: Inhibition rate on VEGFR2
[3] = read-out: Inhibition rate on RET-V804M

| Structure (SMILES) | inhibition at 0.1 µM (RET-V804M; [1]) [%] | further results |
| --- | --- | --- |
| COc1cncc(CN2C3CC2CN(c2ccc(-c4nc(C)cc(Nc5cc(C)[nH]n5)n4)cn2)C3)c1 [Compound 18, 2-(6-(6-((5-methoxypyridin-3-yl)methyl)-3,6-diazabicyclo[3.1.1]heptan-3-yl)pyridin-3-yl)-6-methyl-N-(5-methyl-1H-pyrazol-3-yl)pyrimidin-4-amine] | 70 |  |
| Cc1cc(Nc2cc(C)[nH]n2)nc(-c2ccc(N3CC4CC(C3)N4Cc3ccc(-n4nc(C)cc4C)nc3)nc2)n1 [Compound 11, 2-(6-(6-((6-(3,5-dimethyl-1H-pyrazol-1-yl)pyridin-3-yl)methyl)-3,6-diazabicyclo[3.1.1]heptan-3-yl)pyridin-3-yl)-6-methyl-N-(5-methyl-1H-pyrazol-3-yl)pyrimidin-4-amine] |  | IC50 (RET-V804M): 7.22 ± 0.58 nM; IC50 (VEGFR2; read-out: IC50 for inhibiting VEGFR2): 158 ± 25.1 nM |
| Cc1cc(Nc2cc(C)[nH]n2)nc(-c2ccc(N3CC4CC(C3)N4Cc3ccc(-n4cc(C)c(C)n4)nc3)nc2)n1 [Compound 121, 2-(6-(6-((6-(3,4-dimethyl-1H-pyrazol-1-yl)pyridin-3-yl)methyl)-3,6-diazabicyclo[3.1.1]heptan-3-yl)pyridin-3-yl)-6-methyl-N-(5-methyl-1H-pyrazol-3-yl)pyrimidin-4-amine] |  | IC50 (RET-V804M): 6.22 ± 1.39 nM; inhibition at 0.1 µM (VEGFR2; [2]): 37% |
| COc1ccc(C(=O)N2CCN(c3ccc(-c4nc(C)cc(Nc5cc(C)[nH]n5)n4)cn3)CC2)cn1 [Compound 110, (6-methoxypyridin-3-yl)(4-(5-(4-methyl-6-((5-methyl-1H-pyrazol-3-yl)amino)pyrimidin-2-yl)pyridin-2-yl)piperazin-1-yl)methanone] | 62 |  |
| Cc1cc(Nc2cc(C)[nH]n2)nc(-c2ccc(N3CC4CC(C3)N4Cc3ccc(-n4nccc4C(C)(C)O)nc3)nc2)n1 [Compound 136, 2-(1-(5-((3-(5-(4-methyl-6-((5-methyl-1H-pyrazol-3-yl)-amino)pyrimidin-2-yl)pyridin-2-yl)-3,6-diazabicyclo[3.1.1]heptan-6-yl)methyl)pyridin-2-yl)-1H-pyrazol-5-yl)propan-2-ol] |  | IC50 (RET-V804M): 2.35 ± 0.13 nM; inhibition at 0.03 µM (VEGFR2; 30 nM, read-out: Inhibition rate on VEGFR2): 18% |
| Cc1cc(Nc2cc(C)[nH]n2)nc(-c2ccc(N3CC4CC(C3)N4Cc3ccc(C#N)nc3)nc2)n1 [Compound 117, 5-((3-(5-(4-methyl-6-((5-methyl-1H-pyrazol-3-yl)-amino)pyrimidin-2-yl)pyridin-2-yl)-3,6-diazabicyclo[3.1.1]heptan-6-yl)methyl)-2-cyanopyridine] | 76 |  |
| COc1ccc(CC(=O)N2CCN(c3ccc(-c4nc(C)cc(Nc5cc(C)[nH]n5)n4)cn3)CC2)cn1 [Compound 111, 2-(6-methoxypyridin-3-yl)-1-(4-(5-(4-methyl-6-((5-methyl-1H-pyrazol-3-yl)amino)pyrimidin-2-yl)pyridin-2-yl)piperazin-1-yl)ethan-1-one] | 46 |  |
| Cc1cc(Nc2cc(C)[nH]n2)nc(-c2ccc(N3CC4CC(C3)N4Cc3ccc(-n4cc(CF)cn4)nc3)nc2)n1 [Compound 126, 2-(6-(6-((6-(4-fluoromethyl-1H-pyrazol-1-yl)pyridin-3-yl)methyl)-3,6-diazabicyclo[3.1.1]heptan-3-yl)pyridin-3-yl)-6-methyl-N-(5-methyl-1H-pyrazol-3-yl)pyrimidin-4-amine] | 82 |  |
| Cc1ccc(CN2C3CC2CN(c2ccc(-c4nc(C)cc(Nc5cc(C)[nH]n5)n4)cn2)C3)cn1 [Compound 16, 6-methyl-N-(5-methyl-1H-pyrazol-3-yl)-2-(6-(6-((6-methylpyridin-3-yl)methyl)-3,6-diazabicyclo[3.1.1]heptan-3-yl)pyridin-3-yl)pyrimidin-4-amine] | 92 |  |
| Cc1cc(Nc2cc(C)[nH]n2)nc(-c2ccc(N3CC4CC(C3)N4Cc3ccc(-n4ncc(Cl)c4C)nc3)nc2)n1 [Compound 28′, 2-(6-(6-((6-(4-chloro-5-methyl-1H-pyrazol-1-yl)pyridin-3-yl)methyl)-3,6-diazabicyclo[3.1.1]heptan-3-yl)pyridin-3-yl)-6-methyl-N-(5-methyl-1H-pyrazol-3-yl)pyrimidin-4-amine] |  | inhibition at 0.01 µM (RET-V804M; 10 nM (Table 2), read-out: Inhibition rate on RET-V804M): 34% |
| Cc1cc(Nc2cc(C)[nH]n2)nc(-c2ccc(N3CC4CC(C3)N4Cc3cnccc3C)nc2)n1 [Compound 21, 6-methyl-N-(5-methyl-1H-pyrazol-3-yl)-2-(6-(6-((4-methylpyridin-3-yl)methyl)-3,6-diazabicyclo[3.1.1]heptan-3-yl)pyridin-3-yl)pyrimidin-4-amine] | 49 |  |
| Cc1cc(Nc2cc(C)[nH]n2)nc(-c2ccc(N3CC4CC(C3)N4C(C)c3ccc(-n4cccn4)nc3)nc2)n1 (stereo not drawn) [Compound 125, 2-(6-(6-(1-(6-(1H-pyrazol-1-yl)pyridin-3-yl)ethyl)-3,6-diazabicyclo[3.1.1]heptan-3-yl)pyridin-3-yl)-6-methyl-N-(5-methyl-1H-pyrazol-3-yl)pyrimidin-4-amine] |  | inhibition at 0.3 µM (VEGFR2; 300 nM, read-out: Inhibition rate on VEGFR2): 44% |
| Cc1cc(Nc2cc(C)[nH]n2)nc(-c2ccc(N3CC4CC(C3)N4C(C)c3ccc(-n4cc(F)cn4)nc3)nc2)n1 (stereo not drawn) [Compound 52, 2-(6-(6-(1-(6-(4-fluoro-1H-pyrazol-1-yl)pyridin-3-yl)ethyl)-3,6-diazabicyclo[3.1.1]heptan-3-yl)pyridin-3-yl)-6-methyl-N-(5-methyl-1H-pyrazol-3-yl)pyrimidin-4-amine] |  | inhibition at 0.1 µM (VEGFR2; [2]): -5% |
| Cc1cc(Nc2cc(C)[nH]n2)nc(-c2ccc(N3CC4CC(C3)N4Cc3ccc(C(F)(F)F)nc3)nc2)n1 [Compound 118, 6-methyl-N-(5-methyl-1H-pyrazol-3-yl)-2-(6-(6-((6-(trifluoromethyl)pyridin-3-yl)methyl)-3,6-diazabicyclo[3.1.1]heptan-3-yl)pyridin-3-yl)pyrimidin-4-amine] | 74 |  |
| Cc1cc(Nc2cc(C)[nH]n2)nc(-c2ccc(N3CC4CC(C3)N4Cc3ccc(C#N)cc3)nc2)n1 [Compound 85, 4-((3-(5-(4-methyl-6-((5-methyl-1H-pyrazol-3-yl)-amino)pyrimidin-2-yl)pyridin-2-yl)-3,6-diazabicyclo[3.1.1]heptan-6-yl)methyl)benzonitrile] |  | inhibition at 0.1 µM (RET-V804M; [3]): 77% |
| COc1ccc(C(C)N2C3CC2CN(c2ccc(-c4nc(C)cc(Nc5cc(C)[nH]n5)n4)cn2)C3)cc1 (stereo not drawn) [Compound 50, 2-(6-(6-(1-(4-methoxyphenyl)ethyl)-3,6-diazabicyclo[3.1.1]heptan-3-yl)pyridin-3-yl)-6-methyl-N-(5-methyl-1H-pyrazol-3-yl)pyrimidin-4-amine] |  | inhibition at 0.1 µM (RET-V804M; [3]): 50% |
| COc1ccc(CN2C3CC2CN(c2ccc(-c4nc(C)cc(Nc5cc(C)[nH]n5)n4)cn2)C3)nc1 [Compound 67, 2-(6-(6-((5-methoxypyridin-2-yl)methyl)-3,6-diazabicyclo[3.1.1]heptan-3-yl)pyridin-3-yl)-6-methyl-N-(5-methyl-1H-pyrazol-3-yl)pyrimidin-4-amine] | 82 |  |
| Cc1cc(Nc2cc(C)[nH]n2)nc(-c2ccc(N3CC4CC(C3)N4Cc3ccc(-n4cc(CO)cn4)nc3)nc2)n1 [Compound 127, (1-(5-((3-(5-(4-methyl-6-((5-methyl-1H-pyrazol-3-yl)amino)pyrimidin-2-yl)pyridin-2-yl)-3,6-diazabicyclo[3.1.1]heptan-6-yl)methyl)pyridin-2-yl)-1H-pyrazol-4-yl)methanol] | 84 |  |
| Cc1cc(Nc2cc(C)[nH]n2)nc(-c2ccc(N3CC4CC(C3)N4Cc3ccc(C(F)(F)F)cc3)nc2)n1 [Compound 84, 6-methyl-N-(5-methyl-1H-pyrazol-3-yl)-2-(6-(6-(4-(trifluoromethyl)benzyl)-3,6-diazabicyclo[3.1.1]heptan-3-yl)pyridin-3-yl)pyrimidin-4-amine] |  | inhibition at 0.1 µM (RET-V804M; [3]): 72% |
| COc1ccc(CN2CCN(c3ccc(-c4nc(C)cc(Nc5cc(C)[nH]n5)n4)cn3)CC2)cn1 [Compound 49, 2-(6-(4-((6-methoxypyridin-3-yl)methyl)piperazin-1-yl)pyridin-3-yl)-6-methyl-N-(5-methyl-1H-pyrazol-3-yl)pyrimidin-4-amine] | 75 |  |
| Cc1cc(Nc2cc(C)[nH]n2)nc(-c2ccc(N3CC4CC(C3)N4Cc3cncc(F)c3)nc2)n1 [Compound 98, 2-(6-(6-((5-fluoropyridin-3-yl)methyl)-3,6-diazabicyclo[3.1.1]heptan-3-yl)pyridin-3-yl)-6-methyl-N-(5-methyl-1H-pyrazol-3-yl)pyrimidin-4-amine] | 63 |  |
